According to patent US9630989B2, “Dipeptide analogs for treating conditions associated with amyloid fibril formation” (Ramot at Tel-Aviv University Ltd., priority 2010, dated 2017):
In brackets after ≈: the same amount, converted by molar mass. Non-standard residues stand in square brackets, D forms with d. Residues, ends and D or L forms follow the SMILES beside them. ξ: configuration not given here. *: point of attachment. dNMeW = CN[C@H](Cc1c[nH]c2ccccc12)C(=O)O; ξNMeW = CNC(Cc1c[nH]c2ccccc12)C(=O)O; ξW = NC(Cc1c[nH]c2ccccc12)C(=O)O; NMeAib = CNC(C)(C)C(=O)O; Boc = CC(C)(C)OC(=O)*; Aib = CC(C)(N)C(=O)O; OtBu = CC(C)(C)O*

Experiments:
[1] = Aqueous solubility at pH 7.4; type: physicochemical; conditions: aqueous medium at pH 7.4, aqueous buffer
Procedure: The aqueous solubility of exemplary dipeptide analogs as disclosed herein was tested at pH 7.4.

[2] = tested on: human P-gp (PGP); assay: Membrane permeability in MDCKII/PGP cells; type: in vitro ADME; conditions: dog, MDCK-MDR1; MDCKII cells transfected with human PGP; read-out: Permeability MDCKII/PGP A-B (apical-basolateral flux)
Procedure: (§1) Exemplary peptide analogs as disclosed herein were tested for membrane permeability in MDCKII cells transfected with human PGP, for evaluating intestinal absorption. The data obtained in presented in Table 5 below, where A-B is the apical-basolateral flux and AI is the asymmetry index.

[3] = tested on: P-gp (human PGP); assay: Membrane permeability in MDCKII/PGP cells; type: in vitro ADME; conditions: dog, MDCK-MDR1; MDCKII cells transfected with human PGP; read-out: Permeability MDCKII/PGP AI (asymmetry index)
Procedure: as §1

[4] = biological target: T1, Aβ monomers (Homo sapiens, UniProt P05067); assay: SPR binding assay (BIACORE X100); conditions: immobilized Aβ monomers, 25° C., steady-state; mean ± SD; read-out: SPR binding IC50 [nM] +/− SD (repeats)
T1 construct: Aβ monomers were covalently coupled to one flow cell of CM7 sensor chips
T1 sequence (P05067 672-713 limits assumed): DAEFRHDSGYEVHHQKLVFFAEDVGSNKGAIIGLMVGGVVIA
Procedure: Surface Plasmon Resonance (SPR) studies were performed using a BIACORE X100 biosensor instrument (GE Lifesciences, Uppsala, Sweden), equipped with two flow cells on a sensor chip. Aβ monomers were covalently coupled to one flow cell of CM7 sensor chips (GE Lifesciences, Uppsala, Sweden) via primary amines using the Amine Coupling Kit (GE Lifesciences, Uppsala, Sweden). As a control, ethanolamine was immobilized on the reference channel. […] One RU represents about 1 pg/mm^2 of the analytes on the surface matrix of the sensor chip. […] The stock solutions were diluted 1:1000 in HBS-EP buffer which contains 0.01M HEPES, pH7.4, 0.15M NaCl, 3 mM EDTA, and 0.005% of surfactant P20. HBS-EP+0.1% (v/v) DMSO was used as assay running buffer. The test solutions were injected over the sensor chip in concentrations ranging from 0.1 nM to 300 nM at a flow rate of 10 μl/min for 180 seconds at 25° C. Concentrations were tested in duplicate. The RUs elicited by the compound injected into the ethanolamine control flow cell was set as reference response and subtracted from the RUs elicited by the same compound injected to the Aβ saturated flow cell. The relationships between each RU obtained at the steady state of binding (plateau of the binding curve) and each concentration of the compound were plotted. After the analyte injection was stopped, HBS-EP buffer was flowed over the chip for 180 s to allow the bound analyte to dissociate from the immobilized Aβ and the dissociation curves were obtained. After the dissociation phase, regeneration solution (1M NaCl, 50 mM NaOH) was injected and flowed over the chip for 30 seconds to remove the residual bound analytes from the immobilized Aβ. BIACORE X100 control software Ver 1.1 was used to record the binding curves and BIACORE X100 evaluation software Ver 1.1 to analyze the curves (plot each RU at the steady state vs. concentration of analyte, fit the plot, determine KD values). The dissociation equilibrium constant KD of the analyte to the immobilized Aβ was determined from the steady-state levels estimating the maximum RU Rmax and calculating the KD as the concentration of the compound that elicited one-half of the Rmax.

[5] = Metabolic stability in human liver microsomes; type: in vitro ADME; conditions: % of compound remaining after 30 minutes
Procedure: (§2) The metabolic stability of exemplary peptide analogs as disclosed herein was tested in Human and Rat liver microsomes (HLM and RLM, respectively). The obtained data is presented in Table 5 below, as % of compound remaining after 30 minutes). All of the peptides were found sufficiently stable.

[6] = Metabolic stability in rat liver microsomes; type: in vitro ADME; conditions: % of compound remaining after 30 minutes
Procedure: as §2

[7] = biological target: T2, Aβ1-42 (Homo sapiens, UniProt P05067); assay: Aβ1-42 globulomer generation / oligomer formation (Hillen protocol), gel staining and western blot; type: biochemical
T2 construct: β-amyloid polypeptides (Aβ 1-42, >98% pure); purchased Bachem (Bubendorf, Switzerland); host or cells: chemical synthesis
T2 sequence (P05067 672-713 limits assumed): as above
Procedure: Aβ1-42 intermediates and globulomers were produced according to Barghorn et al. [J. Neurochem. 2005 November; 95(3):834-47]. Synthetic lyophilized β-amyloid polypeptides (Aβ 1-42, >98% pure) were purchased from Bachem (Bubendorf, Switzerland). To avoid pre-aggregation, synthetic lyophilized Aβ1-42 was pretreated with HFIP. Aβ1-42 was dissolved in 100% HFIP, sonicated for 20 seconds and incubated for 2 hours at 37° C. under shaking at 100 RPM. After evaporation in a speedVac, Aβ1-42 was re-suspended in DMSO, with or without the tested peptide, to 5 mM and diluted with 20 mM NaH2PO4, 140 mM NaCl, pH 7.4, to a final concentration of 400 μM, and 1/10 volume 2% SDS (final concentration of 0.2%). The Aβ globulomers were generated by further dilution with two volumes of H2O and incubation for 18 hours or more.
To evaluate the effect of D-Trp-Aib analogs on the transformation of the Aβ1-42 into the toxic assemblies, the tested peptides were incubated with Aβ1-42 at increasing molar ratios, and the reaction mixtures were resolved on SDS-PAGE followed by western blot analysis by a specific anti Aβ antibody (6E10) (SIGNET).

solubility [1] | Papp A→B [2] | efflux ratio [3] | IC50 [4] | Metabolic Stability (%) HLM [5] | Metabolic Stability (%) RLM [6] | SMILES | also measured
> 278 µM | 1.3 ×10⁻⁶ cm/s | 0.8 | – | – | – | CC(=O)N(C)C(Cc1c[nH]c2ccccc12)C(=O)NC(C)(C)C(=O)O (stereo not drawn) (Ac-[ξNMeW]-[Aib]-OH) | –
– | – | – | 56.4 ± 32.7 nM | – | – | CC(=O)N(C)[C@H](Cc1c[nH]c2ccccc12)C(=O)NC(C)(C)C(=O)O [Compound B] (Ac-[dNMeW]-[Aib]-OH) | –
– | – | – | 3.8 ± 1.4 nM | – | – | CN(C(=O)[C@@H](Cc1c[nH]c2ccccc12)NC(=O)OC(C)(C)C)C(C)(C)C(=O)O [Compound Q] (Boc-[dW]-[NMeAib]-OH) | –
> 282 µM | 10.6 ×10⁻⁶ cm/s | 1.6 | – | – | – | CC(C)(C)OC(=O)N/C(=C\c1c[nH]c2ccccc12)C(=O)NC(C)(C)C(N)=O [drawing 64] | –
253 µM (≈ 83.8 µg/mL) | 1.5 ×10⁻⁶ cm/s | 0.7 | – | 90% | >100% | CC(=O)NC(Cc1c[nH]c2ccccc12)C(=O)NC(C)(C)C(=O)O (stereo not drawn) | –
– | – | – | 4.2 nM | – | – | CN(C)C(=O)C(C)(C)NC(=O)[C@H](N)Cc1c[nH]c2ccccc12 [Compound F] (H-[dW]-[Aib]-NMe2) | –
– | – | – | 2.8 ± 0.8 nM | – | – | CC(=O)N[C@H](Cc1c[nH]c2ccccc12)C(=O)NC(C)(C)C(=O)O [Compound A] | –
– | – | – | 1.5 ± 0.6 nM | – | – | CC(C)(C)OC(=O)N/C(=C\c1c[nH]c2ccccc12)C(=O)NC(C)(C)C(N)=O [Compound T] | –
239 µM (≈ 96.4 µg/mL) | 1.4 ×10⁻⁶ cm/s | 0.3 | – | 100% | 87% | CN(C(=O)[C@@H](Cc1c[nH]c2ccccc12)NC(=O)OC(C)(C)C)C(C)(C)C(=O)O [drawing 65] (Boc-[dW]-[NMeAib]-OH) | –
– | – | – | – | – | – | CC(C)(C)OC(=O)C(C)(C)NC(=O)[C@H](N)Cc1c[nH]c2ccccc12 [Compound 1] (H-[dW]-[Aib]-OtBu) | inhibition of Aβ1-42 globulomer formation ([7]; 10:1 (inhibitor:Aβ peptide) molar ratio): inhibit; inhibition of Aβ1-42 globulomer formation ([7]; 20:1 (inhibitor:Aβ peptide) molar ratio): inhibit
– | – | – | 6.2 ± 1.9 nM | – | – | CC(C)(C)OC(=O)N/C(=C\c1c[nH]c2ccccc12)C(=O)NC(C)(C)C(=O)O [Compound U] | –
– | – | – | 40.2 ± 3.4 nM | – | – | CNC(=O)C(C)(C)NC(=O)[C@H](N)Cc1c[nH]c2ccccc12 [Compound E] (H-[dW]-[Aib]-NHMe) | –
– | – | – | 3.9 ± 0.1 nM | – | – | CC(C)(NC(=O)[C@@H](Cc1c[nH]c2ccccc12)NC=O)C(=O)O [Compound C] | –
> 355 µM | 1.6 ×10⁻⁶ cm/s | – | – | >100% | >100% | CC(C)(NC(=O)C(N)Cc1c[nH]c2ccccc12)C(N)=O (stereo not drawn) (H-[ξW]-[Aib]-NH2) | –
– | – | – | 0.5 nM | – | – | CNC(=O)C(C)(C)N(C)C(=O)[C@@H](Cc1c[nH]c2ccccc12)NC(C)=O [Compound V] (Ac-[dW]-[NMeAib]-NHMe) | –
– | – | – | 4.3 ± 1 nM | – | – | CC(=O)N[C@H](Cc1c[nH]c2ccccc12)C(=O)N(C)C(C)(C)C(=O)O [Compound R] (Ac-[dW]-[NMeAib]-OH) | –
> 350 µM | 1.2 ×10⁻⁶ cm/s | – | – | >100% | >100% | CC(C)(NC(=O)C(N)Cc1c[nH]c2ccccc12)C(=O)O (stereo not drawn) [reference compound] | –
> 280 µM | 2.1 ×10⁻⁶ cm/s | 1.2 | – | 95% | 81% | CC(C)(C)OC(=O)N/C(=C\c1c[nH]c2ccccc12)C(=O)NC(C)(C)C(=O)O [drawing 63] | –
222 µM (≈ 70.5 µg/mL) | 1.3 ×10⁻⁶ cm/s | 0.7 | – | 87% | >100% | CC(C)(NC(=O)C(Cc1c[nH]c2ccccc12)NC=O)C(=O)O (stereo not drawn) | –
> 286 µM | 0.7 ×10⁻⁶ cm/s | 1 | – | 88% | >100% | CC(=O)N[C@H](Cc1c[nH]c2ccccc12)C(=O)N(C)C(C)(C)C(=O)O [drawing 66] (Ac-[dW]-[NMeAib]-OH) | –
